The values that follow come from PMC7695835, “Pharmacological characterisation of novel adenosine A3 receptor antagonists” (Scientific Reports, 2020).

Read-outs that look alike come from different tables or passages of the source.

Data set [1] concerns the target T1, A3R (Homo sapiens, UniProt P0DMS8).
T1 sequence (P0DMS8 1-318): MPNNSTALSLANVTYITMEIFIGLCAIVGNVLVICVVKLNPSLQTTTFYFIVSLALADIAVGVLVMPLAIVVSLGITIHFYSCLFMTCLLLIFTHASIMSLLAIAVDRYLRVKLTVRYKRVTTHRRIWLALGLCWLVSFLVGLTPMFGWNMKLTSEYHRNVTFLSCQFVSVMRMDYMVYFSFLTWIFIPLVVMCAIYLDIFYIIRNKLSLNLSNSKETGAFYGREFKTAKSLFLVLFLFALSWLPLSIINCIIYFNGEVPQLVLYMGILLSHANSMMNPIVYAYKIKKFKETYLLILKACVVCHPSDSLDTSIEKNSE
Nature of the data set: HEMADO induced cAMP inhibition at the A3R. Conditions: HEMADO only. The format is cell-based.

In data set [2] the target is T1, A3R. Nature of the data set: Radioligand binding at A3R ([3H]HEMADO, CHO cell membranes). As to conditions: 1 nM [3H]HEMADO; three independent experiments.
Data set [3] concerns the target T1, A3R. As to conditions: for cAMP accumulation Mean difference between 'NECA' and compound: 10 μM forskolin + NECA IC80 + 1 μM compound. (In general: cAMP levels reflect the balance of adenylyl cyclase and phosphodiesterase activity.)
Data set [4] deals with T2, A1R (Homo sapiens, UniProt P30542).
T2 construct: expressed in transfected cells
T2 sequence (P30542 1-326): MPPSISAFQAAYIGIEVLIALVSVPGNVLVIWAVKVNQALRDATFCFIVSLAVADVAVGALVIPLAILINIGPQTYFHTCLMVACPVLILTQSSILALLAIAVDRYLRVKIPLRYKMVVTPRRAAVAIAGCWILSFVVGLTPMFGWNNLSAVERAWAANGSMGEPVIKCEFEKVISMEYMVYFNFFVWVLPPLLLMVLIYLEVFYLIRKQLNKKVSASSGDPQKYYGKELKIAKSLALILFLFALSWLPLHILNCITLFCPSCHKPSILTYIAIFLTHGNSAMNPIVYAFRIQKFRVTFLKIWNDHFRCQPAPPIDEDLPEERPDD
As to the kind of experiment: Radioligand binding at A1R ([3H]CCPA, CHO cell membranes). As to conditions: 1 nM [3H]CCPA; three independent experiments. Here is the method:
(§1) All pharmacological methods followed the procedures as described in the literature. In brief, membranes for radioligand binding were prepared from CHO cells stably transfected with hAR subtypes in a two-step procedure. In the first step, cell fragments and nuclei were removed at 1000×g and then the crude membrane fraction was sedimented from the supernatant at 100,000×g. The membrane pellet was resuspended in the buffer used for the respective binding experiments and it was frozen in liquid nitrogen and stored at – 80 °C. […] Ki values from competition experiments were calculated using Prism (GraphPad Software, La Jolla, CA, USA) assuming competitive interaction with a single binding site.

Data set [5] concerns the target T3, A2AR (Homo sapiens, UniProt P29274).
T3 construct: expressed in transfected cells; host or cells: CHO cells, membrane preparation
Nature of the data set: Radioligand binding at A2AR ([3H]NECA, CHO cell membranes). As to conditions: 10 nM [3H]NECA; three independent experiments. The protocol:
as §1

Data set [6] concerns the target T2, A1R. Set-up: method as in Lagarias et al.[19]. As to conditions: 1 nM [3H]CCPA; ref Lagarias et al.[19]; read-out: Radioligand binding Ki A1R; cited from earlier work.
Data set [7] has as its target T3, A2AR. Set-up: method as in Lagarias et al.[19]. As to conditions: 10 nM [3H]NECA; ref Lagarias et al.[19]; read-out: Radioligand binding Ki A2AR; cited from earlier work.
The target in the next data set is T4, rat A3R (Rattus norvegicus, UniProt P28647).
T4 sequence (P28647 1-320): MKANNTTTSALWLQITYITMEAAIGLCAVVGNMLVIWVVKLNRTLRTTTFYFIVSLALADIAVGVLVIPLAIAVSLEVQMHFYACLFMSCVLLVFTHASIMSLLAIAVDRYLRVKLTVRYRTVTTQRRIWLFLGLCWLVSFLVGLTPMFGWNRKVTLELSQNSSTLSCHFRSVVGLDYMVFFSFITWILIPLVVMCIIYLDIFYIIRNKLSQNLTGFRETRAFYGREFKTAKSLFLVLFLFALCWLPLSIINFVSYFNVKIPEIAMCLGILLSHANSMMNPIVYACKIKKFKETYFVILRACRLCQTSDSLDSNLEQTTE
As to the kind of experiment: NanoBRET ligand-binding, Nluc-rat A3R HEK 293 cells, AV039 tracer. As to conditions: for binding at rat A3R: no binding detected below the concentration of 10 μM; for pKi: rat A3R, 100 nM AV039, BRET ratio at 5 minutes, Cheng-Prusoff.

The next data set is described as follows: in vitro. As to conditions: human, plasma.
Another data set can be described thus: physchem. As to conditions: PBS, pH 7.4.
Another data set can be described thus: Human plasma stability. As to conditions: 1 μM compound.
Data set [8] in a line: Half-life in PBS (pH 7.4). As to conditions: PBS pH 7.4, 1 μM compound.
Data set [9] deals with T1, A3R. Nature of the data set: NECA stimulated cAMP inhibition in A3R Flp-In CHO cells. It counts as cell-based. As to conditions: NECA only; lower plateau.
Data set [10] has as its target T2, A1R. Nature of the data set: NECA stimulated cAMP inhibition in CHO-K1 cells expressing A1R. The format is cell-based. As to conditions: NECA only.
Setting [11] is: 10 μM forskolin + NECA IC80 (3.16 nM) + 1 μM compound, mean ± SEM, n = 3.

T3 sequence (P29274 whole entry): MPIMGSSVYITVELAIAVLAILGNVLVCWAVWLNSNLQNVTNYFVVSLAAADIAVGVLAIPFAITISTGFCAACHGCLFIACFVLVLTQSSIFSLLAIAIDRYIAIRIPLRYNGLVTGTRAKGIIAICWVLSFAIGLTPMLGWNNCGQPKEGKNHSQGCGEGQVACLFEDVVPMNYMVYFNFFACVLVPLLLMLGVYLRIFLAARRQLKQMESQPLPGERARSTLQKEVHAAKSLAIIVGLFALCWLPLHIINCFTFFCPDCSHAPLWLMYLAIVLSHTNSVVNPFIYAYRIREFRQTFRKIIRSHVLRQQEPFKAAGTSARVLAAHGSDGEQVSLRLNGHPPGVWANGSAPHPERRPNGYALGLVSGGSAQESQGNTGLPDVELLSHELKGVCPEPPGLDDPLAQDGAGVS

Turning to `CCCCC#Cc1nc(NC)c2ncn([C@@H]3O[C@H](CO)[C@@H](O)[C@H]3O)c2n1` [HEMADO, (2R,3R,4S,5R)-2-(2-hex-1-ynyl-6-methylaminopurin-9-yl)-5-(hydroxymethyl)oxolane-3,4-diol], the Span on A3R [1] was 107.3 ±4.7. The IC50 on A3R [1] (10 µM forskolin, n = 3, read-out: pIC50 of HEMADO (converted)) was 0.0288 nM. The Emin at A3R [1] (lower plateau) was -3.48 ±2.7 % 10 µM forskolin response. Moreover, the Basal on A3R [1] (upper plateau) is 103.8 ±4.1.
Take `N/C(=N\OC(=O)c1ccc(-c2ccccc2)cc1)c1ccc(Br)cc1` [Compound K36]: the Ki on A3R [2], at A1R [4] and on A2AR [5] was more than 100 µM in each case. Also, the “cAMP accumulation Mean” value on A3R [3] (setting [11]) worked out at 61.96 ±1.51 %10 μM forskolin response. Further, the “cAMP accumulation Mean difference between 'NECA' and compound” value on A3R [3] is recorded as -1.64 %10 μM forskolin response.
Regarding `Cc1nc(C(N)=NOC(=O)c2c(-c3ccccc3Cl)noc2C)cs1` [Compound K17], on A1R [6], the Ki is more than 30 µM. Besides, at A2AR [7], the Ki was more than 60 µM. Further, on rat A3R, the “binding at rat A3R” value is reported as “very weak binding” and the pKi came out at 4.60 ± 0.09.
Regarding `Cc1onc(-c2ccccc2Cl)c1C(=O)O/N=C(\N)c1cccnc1` [Compound K10], the inhibitory constant (Ki) at A1R [6] is more than 60 µM. Also, at A2AR [7], the Ki was more than 60 µM. In addition, on rat A3R, the “binding at rat A3R” value was “very weak binding” and the pKi was 4.19 ± 0.09.
Consider `N/C(=N\OC(=O)c1ccccc1-c1ccccc1)c1cccnc1` [Compound K33], for which the inhibition constant (Ki) on A3R [2] was more than 30 µM; at A1R [4] it was more than 100 µM; on A2AR [5] it was more than 100 µM. Besides, the “cAMP accumulation Mean” value on A3R [3] (setting [11]) is on record as 71.97 ±4.74 %10 μM forskolin response. Further, on A3R [3], the “cAMP accumulation Mean difference between 'NECA' and compound” value is listed as -11.65 %10 μM forskolin response.
With `Cc1onc(-c2ccccc2Cl)c1C(=O)O/N=C(\N)c1ccccn1` [Compound K32], the Ki on A1R [4] is more than 100 µM. Further, at rat A3R, the “binding at rat A3R” value is “very weak binding” and the pKi came to 4.05 ± 0.10. The same molecule returned a Ki at A2AR [5] of more than 100 µM.
`CC(C)[N+](C)(CCOC(=O)C1c2ccccc2Oc2ccccc21)C(C)C` [propantheline, reference compound]: the half-life at 1 μM is 0.917 h in the data set “in vitro” and more than 4 h in the data set “physchem”.
Turning to `Cc1nc(C(=N)NOC(=O)c2c(-c3c(Cl)cccc3Cl)noc2C)cs1` [Compound K18, O4-{[3-(2,6-dichlorophenyl)-5-methylisoxazol-4-yl]carbonyl}-2-methyl-1,3-thiazole-4-carbohydroximamide], the half-life at 1 μM in the data set “in vitro” was more than 2 h; in “physchem” it was more than 4 h. In addition, the Ki on A1R [6] and on A2AR [7] was more than 100 µM throughout. The “percentage remaining after 120 min” value in the data set “Human plasma stability” worked out at 90%. In addition, the “percentage remaining at 240 min” value in [8] is reported as 87%.
Take `CCNC(=O)[C@H]1O[C@@H](n2cnc3c(N)ncnc32)[C@H](O)[C@@H]1O` [NECA]: the Emin at A3R [9] is listed as -5.02 ±2.4 % 10 µM forskolin response, relative to NECA; on A1R [10] (lower plateau), -5.1 ±1.0 % forskolin response. Moreover, on A3R [3] (10 μM forskolin + NECA IC80 (3.16 nM), no test compound), the “cAMP accumulation Mean” value came out at 60.32 ± 3.41 %10 μM forskolin response. On A1R [10], this molecule yielded a Span of 111.4 ±4.0. Further, on A1R [10] (upper plateau), the Basal amounted to 107.5 ±3.4.
Take `COc1ccc(-n2nc3c(NC(=O)CCC(=O)NCCOCCOCCNC(=O)CCCCCNC(=O)COc4ccc(/C=C/C5=[N+]6C(=Cc7ccc(-c8cccs8)n7[B-]6(F)F)C=C5)cc4)nc4ccccc4n3c2=O)cc1` [AV039, reference compound]: the Kd on rat A3R (read-out: KD (saturation binding), fluorescent tracer at Nluc-rat A3R) worked out at 0.102 ± 0.00759 µM.

By Ki is commonly meant a measure of affinity in units of concentration, obtained from inhibition or displacement. A word on the pKi: it is the Ki on a negative log10 scale, so that one unit is a factor of ten. By half-life is commonly meant how long it takes for the measured level to halve. High values mean slow decline, low ones rapid decline.
